Kd data for 48 compounds are collected here from ChEMBL document CHEMBL1147429, “Synthesis and evaluation of novel bacterial rRNA-binding benzimidazoles by mass spectrometry” (Bioorg Med Chem Lett, 2004).

pKd: −log10 of the molar value.

In the test the test system is Ribosomal RNA A-site. Put plainly: Binding affinity for the 16S ribosomal RNA A-site of Escherichia coli. It counts as nucleic-acid assay.
For `CN1CCC(c2nc3cc([N+](=O)[O-])ccc3[nH]2)CC1`, the negative-log Kd (pKd) (in general, the Kd on a negative log10 scale, so that one unit is a factor of ten) is less than 3.00.
The value for `O=[N+]([O-])c1ccc2[nH]c(-c3cccnc3)nc2c1` was less than 3.00; that for `Cc1cc2[nH]c(C3CCNCC3)nc2cc1Cl` was 3.42.
The value for `CC(C)(C)c1ccc(Cn2c(C3CCNCC3)nc3cc(Cl)c(Cl)cc32)cc1` was 3.24; that for `N[C@H]1CC[C@@H](c2nc3cc([N+](=O)[O-])ccc3[nH]2)CC1` was 3.91; that for `Clc1ccc2scc(Cn3c(C4CCNCC4)nc4cc(Cl)c(Cl)cc43)c2c1` was less than 3.00.
Regarding `FC(F)(F)c1ccc(Cn2c(C3CCNCC3)nc3cc(Cl)c(Cl)cc32)cc1`, the pKd is 3.67.
The value for `Clc1cc2nc(C3CCNCC3)n(-c3ncccn3)c2cc1Cl` was 3.17; that for `O=[N+]([O-])c1cc(C(F)(F)F)ccc1-n1c(C2CCNCC2)nc2cc(Cl)c(Cl)cc21` was 3.91.
Under `Fc1c(F)c(C(F)(F)F)c(F)c(F)c1Cn1c(C2CCNCC2)nc2cc(Cl)c(Cl)cc21` stands 3.93; under `Clc1cc2nc(C3CCNCC3)[nH]c2cc1Cl`, 3.76.
Compound `Nc1ccc2[nH]c(C3CCNCC3)nc2c1` showed a pKd of 3.30.
Under `Clc1cc2nc(C3CCNCC3)n(Cc3ccncc3)c2cc1Cl` stands 4.22; under `Clc1cc2nc(C3CCNCC3)n(Cc3ccc(Br)cc3)c2cc1Cl`, 3.36; under `Brc1ccc2[nH]c(C3CCNCC3)nc2c1`, 3.44.
Under `O=C(O)Cn1c(C2CCNCC2)nc2cc(Cl)c(Cl)cc21` stands less than 3.00.
Turning to `O=[N+]([O-])c1ccc(-n2c(C3CCNCC3)nc3cc(Cl)c(Cl)cc32)c([N+](=O)[O-])c1`, the pKd was 3.61.
Under `COC(=O)Cn1c(C2CCNCC2)nc2cc(Cl)c(Cl)cc21` stands 3.52; under `c1nc2nc(C3CCNCC3)nc-2c[nH]1`, 3.04.
Under `Fc1c(F)c(F)c(Cn2c(C3CCNCC3)nc3cc(Cl)c(Cl)cc32)c(F)c1F` stands 3.63.
Under `Cc1ccc2[nH]c(C3CCNCC3)nc2c1` stands 3.36.
In turn, `O=[N+]([O-])c1ccc2[nH]c(C3CCNCC3)nc2c1` gave a pKd of 3.51.
As to `CCCCn1c(C2CCNCC2)nc2cc(Cl)c(Cl)cc21`, the pKd is 3.56.
The value for `Clc1cc2nc(C3CCNCC3)n(Cc3ccc(I)cc3)c2cc1Cl` was 3.70.
The value for `FC(F)(F)c1ccc2[nH]c(C3CCNCC3)nc2c1` was 3.55.
Compound `Cc1ccc(S(=O)(=O)n2c(C3CCNCC3)nc3cc(Cl)c(Cl)cc32)cc1` showed a pKd of less than 3.00.
The value for `COC(=O)c1ccc(Cn2c(C3CCNCC3)nc3cc(Cl)c(Cl)cc32)cc1` was 3.65; that for `NC1CCCC(c2nc3cc([N+](=O)[O-])ccc3[nH]2)C1` (stereo not drawn) was 3.98.
Turning to `O=[N+]([O-])c1ccc2[nH]c(C3CCCCC3)nc2c1`, the pKd was less than 3.00.
Under `O=[N+]([O-])c1ccc(Cn2c(C3CCNCC3)nc3cc(Cl)c(Cl)cc32)cc1` stands 3.62; under `Cc1ccc(OC(=O)n2c(C3CCNCC3)nc3cc(Cl)c(Cl)cc32)cc1`, less than 3.00; under `Clc1cc2nc(C3CCNCC3)n(Cc3ccccc3Br)c2cc1Cl`, 3.23.
Compound `N[C@H]1C(O)O[C@H](CO)C(O)[C@@H]1O` (single isomer, unassigned) [GLUCOSAMINE] had a pKd of roughly 3.00.
The value for `COc1ccc2[nH]c(C3CCNCC3)nc2c1` was 3.23; that for `c1c[nH]c2nc(C3CCNCC3)nc-2c1` was 3.27.
Under `FC(F)(F)c1ccc(Cn2c(C3CCNCC3)nc3cc(Cl)c(Cl)cc32)c(C(F)(F)F)c1` stands 3.80.
Turning to `Clc1cc2nc(C3CCNCC3)n(Cc3cccnc3)c2cc1Cl`, the pKd was 4.17.
The value for `c1cc2nc(C3CCNCC3)nc-2c[nH]1` was 3.96; that for `Clc1cc2nc(C3CCNCC3)n(Cc3cccc(I)c3)c2cc1Cl` was 3.39.
With `CC(=O)N1CCC(c2nc3cc([N+](=O)[O-])ccc3[nH]2)CC1`, the pKd is less than 3.00.
Under `Nc1ccc(-c2nc3cc([N+](=O)[O-])ccc3[nH]2)cc1` stands less than 3.00; under `c1ccc2[nH]c(C3CCNCC3)nc2c1`, 3.97; under `O=[N+]([O-])c1ccc2[nH]c(-c3ccncc3)nc2c1`, less than 3.00.
For `Clc1ccc2[nH]c(C3CCNCC3)nc2c1`, the pKd was 3.29.
Compound `c1ccc2sc(C3CCNCC3)nc2c1` gave a pKd of less than 3.00.
Under `Cn1c(C2CCNCC2)nc2cc(Cl)c(Cl)cc21` stands 3.62; under `N[C@H]1CC[C@@H](c2nc3cc([N+](=O)[O-])ccc3[nH]2)C1`, 3.66.
The value for `Nc1cccc(-c2nc3cc([N+](=O)[O-])ccc3[nH]2)c1` was less than 3.00.
